The results in this text go back to patent US8952199B2, “Methods of and formulations for reducing and inhibiting the growth of the concentration of microbes in water-based fluids and systems used with them” (Dow Global Technologies LLC, priority 2007, dated 2015).

Assay type in all cases: cell-based
The test system of experiment [1] is mixed oil/gas field aerobic bacteria. The experiment is described as follows: Biocidal efficacy against mixed oil/gas field aerobic bacteria in sterile salt solution, serial dilution count. The conditions noted are these: for Concentration required to achieve at least 3 log reduction of aerobic bacteria: active, 37° C. How it is done: A sterile salt solution (1.2490 g NaCl, 2.9290 g NaHCO3, 0.1910 g Na2CO3, 0.0060 g Na2SO4, 0.033 g CaCl2, and 0.0590 g MgCl2.6H2O in 1 L water) is contaminated with mixed oil/gas field aerobic bacteria at final bacterial concentrations of ˜10^7 CFU/mL. At day zero, either glutaraldehyde (UCARCIDE™ 250, 50% glutaraldehyde in water, The Dow Chemical Company) or THPS (AQUCAR™ THPS 75, 75% THPS in water, The Dow Chemical Company) is added and the solution mixed well to provide a desired final concentration. The solution is then incubated at 37° C. Bacterial populations are monitored over time using a serial dilution method. In experiments running over seven days, samples are reinoculated at day seven. […]

For experiment [2], the system named is mixed oil/gas field anaerobic sulfate reducing bacteria. Briefly: Biocidal efficacy against mixed oil/gas field anaerobic sulfate reducing bacteria in deaerated salt solution, serial dilution count. The conditions noted are these: for Concentration required to achieve at lease 3 log bacterial reduction in 1 hr / Concentration required to achieve at least 3 log reduction of anaerobic sulfate reducing bacteria: active; for Concentration required to achieve at lease 3 log bacterial reduction in 1 hr: biocide alone, anaerobic oil/gas field SRB bacteria; for Concentration required to achieve at least 3 log reduction of anaerobic sulfate reducing bacteria: 37° C. On the procedure:
A sterile salt solution as described in Example 1 is deaerated, then contaminated with mixed oil/gas field anaerobic sulfate reducing bacteria at final bacterial concentrations of ˜10^7 CFU/mL. At time=zero, either glutaraldehyde (UCARCIDE™ 250) or THPS (AQUCAR™ THPS 75) is added and the solution mixed well to provide a desired final concentration. The solutions are incubated at 37° C. in an anaerobic environment (Bactron III anaerobic chamber). Bacterial populations are monitored over time using a serial dilution method. In experiments running over seven days, samples are reinoculated at day seven.
(§1) The testing protocols described in Examples 1 and 2, respectively, are used for oil/gas field aerobic bacteria and anaerobic sulfate reducing bacteria. For the standard bacterial strains Enterobacter aerogenes ATCC 13048, Salmonella choleraesius ATCC 10708, Pseudomonas aeruginosa ATCC 10145, Staphylococcus aureus ATCC 6538, Klebsiella pneumoniae ATCC 8308, Bacillus subtillus ATCC 8473, Escherichia coli ATCC 11229, and Pseudomonas aeruginosa ATCC 39451, separate experiments are performed as described in Example 1, but using a sterile 0.85% NaCl solution instead of the salt solution. For standard marine bacteria Pseudomonas sp. ATCC 39451, experiments are performed as described in Examples 1 and 2, but at pH 8.0 using artificial sea water (24.6 g NaCl, 0.67 g KCl, 1.36 g CaCl2.2H2O, 6.29 g MgSO4.7H2O, 4.66 g MgCl2.6H2O and 0.18 g NaHCO3 in 1 L water). All data is collected at time=1 hour.

For experiment [3], the system named is Aerobic bacteria (ATCC bacterial strains, oil/gas field aerobic bacteria, standard marine bacterium). Briefly: Concentration for at least 3 log reduction in 1 hr, aerobic bacteria (one value for ATCC strains, oil/gas field aerobic bacteria and standard marine bacterium). The following applies: active, biocide alone. How it is done: A sterile salt solution (1.2490 g NaCl, 2.9290 g NaHCO3, 0.1910 g Na2CO3, 0.0060 g Na2SO4, 0.033 g CaCl2, and 0.0590 g MgCl2.6H2O in 1 L water) is contaminated with mixed oil/gas field aerobic bacteria at final bacterial concentrations of ˜10^7 CFU/mL. At day zero, either glutaraldehyde (UCARCIDE™ 250, 50% glutaraldehyde in water, The Dow Chemical Company) or THPS (AQUCAR™ THPS 75, 75% THPS in water, The Dow Chemical Company) is added and the solution mixed well to provide a desired final concentration. The solution is then incubated at 37° C. Bacterial populations are monitored over time using a serial dilution method. In experiments running over seven days, samples are reinoculated at day seven.
as §1, with “ATCC 39451, experiments are performed as described in Examples 1 and 2, but at pH 8.0 using artificial sea water (24.6 g NaCl, 0.67 g KCl, 1.36 g CaCl2.2H2O, 6.29 g MgSO4.7H2O, 4.66 g MgCl2.6H2O and 0.18 g NaHCO3 in 1 L water). All data is collected at time=1 hour.” left out

[4] abbreviates: time interval 8 days, reinoculated at day seven.
Where [5] appears, read: time interval 9 days, reinoculated at day seven.

In the case of “tetrakis(hydroxymethyl)phosphonium sulfate [THPS]”, the “Concentration required to achieve at least 3 log reduction of aerobic bacteria” value was 25.0 ppm in experiment [1] (time interval 2 hrs); 25.0 ppm in experiment [1] (time interval 4 hrs); 12.5 ppm in experiment [1] (time interval 1 day); 12.5 ppm in experiment [1] (time interval 3 days); 25.0 ppm in experiment [1] (time interval 4 days); 25.0 ppm in experiment [1] (time interval 7 days). For the same molecule, the “Concentration required to achieve at least 3 log reduction of aerobic bacteria” value in experiment [1] (setting [4]) and in experiment [1] (setting [5]) was 100.0 ppm each time. Further, the “Concentration required to achieve at lease 3 log bacterial reduction in 1 hr” value in experiment [2] and in experiment [3] was 44.49 ppm in each case. Further, the “Concentration required to achieve at least 3 log reduction of anaerobic sulfate reducing bacteria” value in experiment [2] (time interval 2 hrs) stood at 50.0 ppm; in experiment [2] (time interval 4 hrs), 25.0 ppm; in experiment [2] (time interval 1 day) it was 25.0 ppm; in experiment [2] (time interval 2 days), 12.5 ppm; in experiment [2] (time interval 3 days), 6.3 ppm; in experiment [2] (time interval 4 days), 6.3 ppm. Also, the “Concentration required to achieve at least 3 log reduction of anaerobic sulfate reducing bacteria” value is listed as 6.3 ppm in experiment [2] (time interval 7 days), 12.5 ppm in experiment [2] (setting [4]) and 25.0 ppm in experiment [2] (setting [5]).
Regarding `O=CCCCC=O` [glutaraldehyde], the “Concentration required to achieve at least 3 log reduction of aerobic bacteria” value in experiment [1] (time interval 2 hrs) is 25.0 ppm; in experiment [1] (time interval 4 hrs) it was 25.0 ppm; in experiment [1] (time interval 1 day) it was 6.3 ppm; in experiment [1] (time interval 3 days), 6.3 ppm; in experiment [1] (time interval 4 days), 6.3 ppm; in experiment [1] (time interval 7 days), 12.5 ppm. Moreover, the “Concentration required to achieve at least 3 log reduction of aerobic bacteria” value in experiment [1] (setting [4]) and in experiment [1] (setting [5]) was 25.0 ppm throughout. Also, in experiment [1] (glutaraldehyde versus hydroxymethyl-substituted phosphorus compounds), the “Efficacy against aerobic bacteria, compared in words” value is recorded as “higher efficacy against aerobic bacteria”. In addition, the “Concentration required to achieve at lease 3 log bacterial reduction in 1 hr” value in experiment [2] was 29.67 ppm; in experiment [3], 44.49 ppm. Moreover, the “Concentration required to achieve at least 3 log reduction of anaerobic sulfate reducing bacteria” value stood at 12.5 ppm in experiment [2] (time interval 2 hrs); 12.5 ppm in experiment [2] (time interval 4 hrs); 12.5 ppm in experiment [2] (time interval 1 day); 12.5 ppm in experiment [2] (time interval 2 days); 25.0 ppm in experiment [2] (time interval 3 days); 25.0 ppm in experiment [2] (time interval 4 days). For the same molecule, the “Concentration required to achieve at least 3 log reduction of anaerobic sulfate reducing bacteria” value in experiment [2] (time interval 7 days) was determined as 25.0 ppm; in experiment [2] (setting [4]), 25.0 ppm; in experiment [2] (setting [5]), 50.0 ppm. Also, the “Speed of action on anaerobic sulfate reducing bacteria, compared in words” value in experiment [2] (glutaraldehyde versus hydroxymethyl-substituted compounds) is listed as “more rapid results”.
